# Read-outs that look alike come from different tables or passages of the source.
# Assay: pKa of the acidic agrochemically active ingredient
# Format: physicochemical
# Text: In the case of using the above-described acidic agrochemically active ingredient having the prescribed pKa, the pKa of the ingredient can be measured by, for example, a method described in “Jikken Kagaku Koza 5, (Thermal measurement and Equilibrium)”, Maruzene, p. 469-474, Jan. 20 (1958) and the like.
Structure (SMILES),pKa,pKa (read-out: pKa)
"COCc1cccc(C(O)c2nc(OC)cc(OC)n2)c1NS(=O)(=O)C(F)F (stereo not drawn) [Compound A, 2-[(4,6-dimethoxypyrimidin-2-yl)hydroxymethyl]-6-methoxymethyl-N-difuloromethanesulfonylanilide]",5.75,
"CCc1cccc(C(O)c2nc(OC)cc(OC)n2)c1NS(=O)(=O)C(F)F (stereo not drawn) [Compound B, 2-[(4,6-dimethoxypyrimidin-2-yl)hydroxymethyl]-6-ethyl-N-difuloromethanesulfonylanilide]",6.17,
"Cc1cccc2sc3nncn3c12 [tricyclazole, 5-methyl-1,2,4-triazolo[3,4-b]benzothiazole]",1.6,
"COc1cc(OC)nc(NC(=O)NS(=O)(=O)c2c(-c3nnn(C)n3)cnn2C)n1 [azimsulfuron, 1-(4,6-dimethoxypyrimidin-2-yl)-3-[1-methyl-4-(2-methyl-2H-tetrazol-5-yl)pyrazol-5-ylsulfonyl]urea]",,3.6
"COc1cc(OC)nc(NC(=O)NS(=O)(=O)c2c(Cl)nc3ccccn23)n1 [imazosulfuron, 1-(2-chloroimidazo[1,2-a]pyridin-3-ylsulfonyl)-3-(4,6-dimethoxypyrimidin-2-yl)urea]",,4
CNC(=O)Oc1ccccc1OC(C)C [PHC],11.5,
CCOP(=O)(Sc1ccccc1)Sc1ccccc1 [EDDP],10.5,
"CCOC(=O)c1cnn(C)c1S(=O)(=O)NC(=O)Nc1nc(OC)cc(OC)n1 [pyrazosulfuron-ethyl, ethyl 5-(4,6-dimethoxypyrimidin-2-ylcarbamoylsulfamoyl)-1-methylpyrazole-4-carboxylate]",,3.91
"COC(=O)c1ccccc1CS(=O)(=O)NC(=O)Nc1nc(OC)cc(OC)n1 [bensulfuron-methyl, methyl α-(4,6-dimethoxypyrimidin-2-ylcarbamoylsulfamoyl)-o-toluate]",5.03,

# — US7638506B2, “Granular agrochemical composition” (Kumiai Chemical Industry Co., Ltd., priority 2002, dated 2009)
